The record followed here is patent US20230202997A1, “CHROMANOL, QUINONE OR HYDROQUINONE COMPOUNDS FOR TREATMENT OF SEPSIS” (Sulfateq B.V., priority 2020, published 2023).

For assay [1], the system named is expression of IL-6, TNF-α, IL-1β and ICAM in the kidney. In words: CLP sepsis model, kidney RNA expression by qRT-PCR. The class given is in vivo. The note with it: CLP mice; SUL-138 5 mg/kg s.c.; 24 hours. Here is the method: To induce sepsis, the standard cecal ligation and puncture (CLP) model was used. Animals were anesthetized by subcutaneous injection of xylazine/ketamine (100/10 mg/kg), followed by administration of buprenorphine (0.1 mg/kg) as analgesic. After confirmation of anesthesia by lack of response to paw pinch and eye reflex, the abdomen was shaved, cleaned, and de-germed using a povidone-iodine solution before a 1-cm midline incision was made. The cecum was ligated with a 6-0 suture at half the distance between distal pole and the base of the cecum and punctured once with a 21-Gauge needle (‘through-and-through’ from mesenteric toward anti-mesenteric direction) which is an accepted model for ‘mid-grade’ sepsis. A small amount of stool (2-3 mm) was then extruded to ensure wound patency. The cecum was repositioned, thereby taking care not to spill fecal material on the wound edges, followed by closure of the abdomen by running sutures to the abdominal musculature and short interrupted sutures to the skin. Next, 1 ml of saline (warmed, 0.9% NaCl s.c.) was administered to compensate for the expected relative volume depletion due to the onset of sepsis.
Mice in the SUL-138 treated groups were injection with SUL-138 (dissolved in saline, 5 mg/kg, s.c.) at 2 hours before and 8 hours after surgery, while mice in the other groups were injected with an equal volume of saline at these time-points.
In order to assess the expression of proinflammatory cytokines and adhesion molecules in the kidney, including IL-6, TNF-α, IL-1β and ICAM, RNA was isolated from approximately 30 mg kidney tissue using Nucleospin RNA (Machery-Nagel, Duren, Germany), quantified using nanodrop spectrophotometer ND-1000 and converted into copy DNA (cDNA), using 0.5 μg RNA in each sample. For RNA isolation from cells, the same kit was used with slight adaptations: TRIzol and chloroform as lysis buffer, instead of the lysis buffer from the kit. Olignucleotide primers were designed using NCBI Primer Blast and Clone Manager (see appendix) and validated by assessing the efficiency, melting temperature and curve using qRT-PCR and size on gel electrophoresis of the naive and enzymatically digested products. qRT-PCR amplification was performed using the following thermal profile: 95° C. for 2 min, followed by 40 cycli of 95° C. for 15 sec, 58° C. for 30 sec and 72° C. 30 sec. All reactions were carried out in triplicate and a standard curve for each primer was used.
In general terms: Quantitative PCR measures a nucleic acid by following its amplification.

Assay [2] deals with IL-6 mRNA expression. In words: Inhibition of LPS-induced IL-6 mRNA expression in NRK52E. The class given is cell-based, Rat. The note with it: 10 μM for 30 min, then LPS 24 hours. The method, then:
Rat kidney epithelial cells (ATCC #CRL-1571) were maintained in DMEM medium containing 10% fetal bovine serum, and 1% Penicillin-Streptomycin solution (Sigma-Aldrich). NRK52E cells were passaged by trypsinization when the cultures reached a confluency of 70%. For all experiments, NRK52E cells were seeded at 0.6·10^5 cells/cm^2 and allowed to adhere for 24 hours.
HUVEC and NRK52E cells were pre-incubated with SUL compounds (10 μM) for 30 min and subsequently exposed to LPS for 24 hours under standard culture conditions. Cells were lysed in triZOL reagens (Invitrogen) and total RNA isolated according to manufacturers' instruction. 1 μg total RNA per sample was reverse transcribed using the FirstAid Reverse Transcription Kit (ThermoFisher). Copy-DNA equivalents of 5 ng total RNA were amplified on a ViiA7 Real-time PCR system (ThermoFisher, Waltham, Mass.) using iTaq Universal SYBR Green Supermix (Bio-Rad, Hercules, Calif.) and primers specific for tumor necrosis factor alpha, interleukin 1 beta, interleukin-6 and beta actin as loading control. Amplification was performed for 40 cycles of 95° C. for 30 s, 60° C. for 1 min. Relative mRNA expression was calculated as 2^−(Cq^gene^−Cq^reference^) and normalized to unstimulated control cells (100% inhibition) and vehicle-treated and LPS exposed cells (0% inhibition). The following primers were used: […]

Assay [3] has as its system NO production in RAW264.7 macrophages. Briefly: Macrophage NO production (nitrate in conditioned medium), basal and after LPS. The class given is cell-based, Mouse. The method, then:
Mouse macrophage RAW264.7 cells (ATCC #TIB-71) were maintained in DMEM medium containing 10% fetal bovine serum, and 1% Penicillin-Streptomycin solution (Sigma-Aldrich). […] For all experiments, RAW264.7 cells were seeded at 0.5·10^5 cells/cm^2 and allowed to adhere for 24 hours. Cellular production of NO was approximated by measuring nitrate concentrations in culture media using the Measure-IT™ High-Sensitivity Nitrite Assay Kit (#M36051, ThermoFisher) according to manufacturer's instructions. […] Therefore, nitrate concentrations in conditioned media are a good approximate to assess cellular NO production. 50 μl conditioned medium derived from a single 96-wells plate well was used per assay and normalized against protein concentration. All experiments were performed in quadruplicate. LPS induces macrophage NO production by activating iNOS. RAW264.7 macrophages were pre-treated with vehicle (DMSO), BN-80933, SUL-138, or SUL-150 or (all 10 μM) prior to endotoxin (LPS 100 ng/ml) exposure for 24 hours. The nitrate levels in the conditioned medium from LPS exposed RAW264.7 macrophages averaged at 83 pmol/mg protein (˜16-fold increase versus non-exposed RAW264.7 cells, p=0.001).

Assay [4] concerns mitochondrial oxidative stress in HUVEC. In words: LPS-induced mitochondrial superoxide in HUVEC (MitoSox). The class given is cell-based, Human. The note with it: 10 μM for 30 min, LPS 100 ng/ml 24 hours. The method, then:
Human Umbilical Cord Endothelial Cells (HUVEC, Lonza CC-2519) were maintained on 1% gelatin-coated culture flasks in RPMI1640 medium containing 20% fetal bovine serum, 2 mM Glutamine (Sigma-Aldrich), 1% Penicillin-Streptomycin solution (Sigma-Aldrich) and 50 μg/ml Bovine Pituitary Extract (Invitrogen). HUVEC were passaged by trypsinization when the cultures reach a confluency of 70%. For all experiments, HUVEC were seeded at 0.6·10^5 cells/cm^2 and allowed to adhere for 24 hours.
The production of cellular and mitochondrial oxidative stress was measured using fluorescent probes for cellular and mitochondrial superoxide, i.e. dihydroethidium (DHE) and MitoSox (ThermoFisher), respectively. HUVEC were incubated with BN-80933, SUL-138 or SUL-150 (all 10 μM) for 30 min. Next, HUVEC were exposed to LPS (100 ng/ml) for an additional 24 hours. In the final hour of incubation, 2.5 μM of DHE or MitoSox was applied to each sample. HUVEC were washed in PBS and fixed in 4% paraformaldehyde at room temperature for 15 min. Nuclear staining was performed by 5 μM […] (DAPI) and fluorescence intensity of the samples was recorded in a CLARIOStar Plus plate reader (BMG Labtech) equipped with the appropriate filter sets. Fluorescence recordings for DHE and MitoSox were corrected for DAPI fluorescence. All experiments were performed in quadruplicate.

For the compound `Cc1c(C)c2c(c(C)c1O)CC[C@@](C)(C(=O)N1CCN(CCO)CC1)O2` [SUL-138, (S)-(6-hydroxy-2,5,7,8-tetramethylchroman-2-yl)(4-(2-hydroxyethyl)piperazin-1-yl)methanone], in assay [1], the “ICAM expression in the kidney (RNA)” value is recorded as “lower than in the untreated CLP animals but the difference was not statistically significant”, the “IL-1β expression in the kidney (RNA)” value is listed as “lower than in the untreated CLP animals but the difference was not statistically significant”, the “IL-6 expression in the kidney (RNA)” value was “fully prevented the rise in IL-6 expression” and the “TNF-α expression in the kidney (RNA)” value is reported as “lower than in the untreated CLP animals but the difference was not statistically significant”. Moreover, in assay [2], the “inhibition of LPS-induced mRNA expression of IL-6” value turned out to be 65.3 ± 7.6 %. For the same compound, the “LPS-induced increase in extracellular nitrate level” value in assay [3] (10 μM pre-treatment, LPS 100 ng/ml for 24 hours) was “Neither SUL-138 nor SUL-150 strongly suppressed the LPS-induced increase in nitrate production”. For the same compound, the “basal production of extracellular nitrate” value in assay [3] (no LPS, 10 μM) was “Neither BN-80933, SUL-138, nor SUL-150 affected the basal production of extracellular nitrate”. In assay [4], the “LPS-induced mitochondrial oxidative stress (MitoSox)” value is listed as “precluded the LPS-induced increase in mitochondrial oxidative stress”.
